# Results taken from the kinase profiling compilation of Christmann-Franck et al. (2016).
# How the values were obtained:
# Experiment in all cases: radiometric filter-binding kinase assay, Kinase HotSpot
# Settings in all cases: compound 0.5 µM; ATP 10 µM
# ABL2 (human) = ABL2 (human) (UniProt P42684)
# AXL (human) = AXL (human) (UniProt P30530)
# BMX (human) = BMX (human) (UniProt P51813)
# CAMKK1 (human) = CAMKK1 (human) (UniProt Q8N5S9)
# CDK2 CCNE1 (human) = CDK2 CCNE1 (human) (UniProt P24941+P24864)
# CDK9 CCNT1 (human) = CDK9 CCNT1 (human) (UniProt P50750+O60563)
# CHEK1 (human) = CHEK1 (human) (UniProt O14757)
# CHEK2 (human) = CHEK2 (human) (UniProt O96017)
# CLK3 (human) = CLK3 (human) (UniProt P49761)
# CSK (human) = CSK (human) (UniProt P41240)
# CSNK1G1 (human) = CSNK1G1 (human) (UniProt Q9HCP0)
# DSTYK (human) = DSTYK (human) (UniProt Q6XUX3)
# DYRK2 (human) = DYRK2 (human) (UniProt Q92630)
# EPHA6 (human) = EPHA6 (human) (UniProt Q9UF33)
# EPHB2 (human) = EPHB2 (human) (UniProt P29323)
# GRK7 (human) = GRK7 (human) (UniProt Q8WTQ7)
# HIPK4 (human) = HIPK4 (human) (UniProt Q8NE63)
# ITK (human) = ITK (human) (UniProt Q08881)
# [1] = biological target: JAK1 JH1 catalytic (human) (UniProt P23458)
# LTK (human) = LTK (human) (UniProt P29376)
# MAP3K2 (human) = MAP3K2 (human) (UniProt Q9Y2U5)
# MAP3K9 (human) = MAP3K9 (human) (UniProt P80192)
# MAPK10 (human) = MAPK10 (human) (UniProt P53779)
# MARK3 (human) = MARK3 (human) (UniProt P27448)
# MKNK2 (human) = MKNK2 (human) (UniProt Q9HBH9)
# NEK1 (human) = NEK1 (human) (UniProt Q96PY6)
# NTRK2 (human) = NTRK2 (human) (UniProt Q16620)
# NUAK1 (human) = NUAK1 (human) (UniProt O60285)
# NUAK2 (human) = NUAK2 (human) (UniProt Q9H093)
# PAK7 (human) = PAK7 (human) (UniProt Q9P286)
# PKN2 (human) = PKN2 (human) (UniProt Q16513)
# PRKCA (human) = PRKCA (human) (UniProt P17252)
# PRKCD (human) = PRKCD (human) (UniProt Q05655)
# PRKCZ (human) = PRKCZ (human) (UniProt Q05513)
# PRKD1 (human) = PRKD1 (human) (UniProt Q15139)
# PRKD2 (human) = PRKD2 (human) (UniProt Q9BZL6)
# PTK6 (human) = PTK6 (human) (UniProt Q13882)
# TAOK1 (human) = TAOK1 (human) (UniProt Q7L7X3)
# TAOK2 (human) = TAOK2 (human) (UniProt Q9UL54)
# TTK (human) = TTK (human) (UniProt P33981)
# YES1 (human) = YES1 (human) (UniProt P07947)
# CLK3 (human), sequence (P49761 whole entry, looked up): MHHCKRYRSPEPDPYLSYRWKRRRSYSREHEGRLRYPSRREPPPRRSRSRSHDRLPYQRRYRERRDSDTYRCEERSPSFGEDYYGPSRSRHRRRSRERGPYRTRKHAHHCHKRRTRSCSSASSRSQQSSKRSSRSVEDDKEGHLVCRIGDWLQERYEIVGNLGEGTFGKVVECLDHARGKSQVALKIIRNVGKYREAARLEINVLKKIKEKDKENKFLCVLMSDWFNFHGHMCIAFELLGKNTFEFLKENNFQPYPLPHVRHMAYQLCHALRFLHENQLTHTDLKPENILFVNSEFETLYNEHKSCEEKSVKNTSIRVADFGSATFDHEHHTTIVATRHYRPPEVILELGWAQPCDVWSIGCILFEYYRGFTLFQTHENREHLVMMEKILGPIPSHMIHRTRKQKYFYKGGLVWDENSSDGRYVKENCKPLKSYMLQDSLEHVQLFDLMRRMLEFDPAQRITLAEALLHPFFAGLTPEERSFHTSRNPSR
# MKNK2 (human), sequence (Q9HBH9 whole entry, looked up): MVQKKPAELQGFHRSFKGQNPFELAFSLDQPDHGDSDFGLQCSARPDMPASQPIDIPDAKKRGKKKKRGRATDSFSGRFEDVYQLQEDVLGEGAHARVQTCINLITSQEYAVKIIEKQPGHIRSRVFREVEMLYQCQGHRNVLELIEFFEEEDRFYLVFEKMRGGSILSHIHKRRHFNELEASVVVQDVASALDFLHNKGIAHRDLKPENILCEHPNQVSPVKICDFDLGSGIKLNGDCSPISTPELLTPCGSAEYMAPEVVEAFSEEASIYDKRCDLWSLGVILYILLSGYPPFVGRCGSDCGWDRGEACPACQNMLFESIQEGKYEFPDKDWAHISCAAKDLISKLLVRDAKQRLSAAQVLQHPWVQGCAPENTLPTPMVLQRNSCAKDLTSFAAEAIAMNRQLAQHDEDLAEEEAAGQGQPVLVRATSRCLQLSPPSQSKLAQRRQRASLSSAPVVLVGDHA
# MAP3K2 (human), sequence (Q9Y2U5 whole entry, looked up): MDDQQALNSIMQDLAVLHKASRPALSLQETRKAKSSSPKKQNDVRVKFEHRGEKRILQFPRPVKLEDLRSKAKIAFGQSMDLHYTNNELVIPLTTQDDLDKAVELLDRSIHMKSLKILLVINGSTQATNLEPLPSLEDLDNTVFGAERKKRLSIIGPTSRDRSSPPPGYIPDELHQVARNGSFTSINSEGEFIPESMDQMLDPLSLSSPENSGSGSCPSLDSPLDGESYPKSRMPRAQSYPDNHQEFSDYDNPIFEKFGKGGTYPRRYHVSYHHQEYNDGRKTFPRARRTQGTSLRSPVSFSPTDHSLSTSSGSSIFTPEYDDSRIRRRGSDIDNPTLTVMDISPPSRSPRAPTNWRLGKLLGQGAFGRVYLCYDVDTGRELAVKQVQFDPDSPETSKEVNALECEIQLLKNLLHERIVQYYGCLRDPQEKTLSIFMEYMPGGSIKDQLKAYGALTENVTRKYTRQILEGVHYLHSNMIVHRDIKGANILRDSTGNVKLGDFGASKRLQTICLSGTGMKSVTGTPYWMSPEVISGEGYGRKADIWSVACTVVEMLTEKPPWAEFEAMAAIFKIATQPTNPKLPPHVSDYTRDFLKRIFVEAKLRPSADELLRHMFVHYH
# PTK6 (human), sequence (Q13882 whole entry, looked up): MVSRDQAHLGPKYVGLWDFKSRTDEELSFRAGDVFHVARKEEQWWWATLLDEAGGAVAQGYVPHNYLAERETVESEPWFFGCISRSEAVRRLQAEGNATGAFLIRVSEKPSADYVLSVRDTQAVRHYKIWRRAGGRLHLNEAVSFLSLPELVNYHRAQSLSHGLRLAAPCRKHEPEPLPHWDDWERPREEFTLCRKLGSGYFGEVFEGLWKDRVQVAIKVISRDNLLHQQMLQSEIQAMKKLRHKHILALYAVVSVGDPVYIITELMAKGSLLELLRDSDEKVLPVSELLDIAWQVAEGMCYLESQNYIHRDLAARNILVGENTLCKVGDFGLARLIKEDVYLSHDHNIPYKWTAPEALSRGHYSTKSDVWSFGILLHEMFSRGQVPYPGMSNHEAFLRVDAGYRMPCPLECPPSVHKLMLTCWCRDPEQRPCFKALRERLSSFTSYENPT
# NUAK1 (human), sequence (O60285 whole entry, looked up): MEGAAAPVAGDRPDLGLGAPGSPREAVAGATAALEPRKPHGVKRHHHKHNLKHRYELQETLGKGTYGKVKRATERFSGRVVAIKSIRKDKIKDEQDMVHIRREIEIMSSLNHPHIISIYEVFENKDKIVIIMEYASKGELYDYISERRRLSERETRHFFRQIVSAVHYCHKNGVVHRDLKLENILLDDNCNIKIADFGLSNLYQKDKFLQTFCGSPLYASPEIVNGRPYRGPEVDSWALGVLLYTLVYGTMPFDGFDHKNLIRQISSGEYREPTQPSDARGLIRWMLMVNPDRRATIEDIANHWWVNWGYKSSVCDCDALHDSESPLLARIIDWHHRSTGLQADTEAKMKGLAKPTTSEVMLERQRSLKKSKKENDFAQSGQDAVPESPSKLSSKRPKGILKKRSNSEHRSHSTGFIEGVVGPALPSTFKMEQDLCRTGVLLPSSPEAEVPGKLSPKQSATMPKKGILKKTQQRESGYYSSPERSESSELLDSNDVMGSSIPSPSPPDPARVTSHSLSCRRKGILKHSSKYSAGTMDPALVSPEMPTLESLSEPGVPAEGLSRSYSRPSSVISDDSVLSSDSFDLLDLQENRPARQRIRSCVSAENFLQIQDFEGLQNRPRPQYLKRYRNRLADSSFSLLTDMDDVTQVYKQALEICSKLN
# NUAK2 (human), sequence (Q9H093 whole entry, looked up): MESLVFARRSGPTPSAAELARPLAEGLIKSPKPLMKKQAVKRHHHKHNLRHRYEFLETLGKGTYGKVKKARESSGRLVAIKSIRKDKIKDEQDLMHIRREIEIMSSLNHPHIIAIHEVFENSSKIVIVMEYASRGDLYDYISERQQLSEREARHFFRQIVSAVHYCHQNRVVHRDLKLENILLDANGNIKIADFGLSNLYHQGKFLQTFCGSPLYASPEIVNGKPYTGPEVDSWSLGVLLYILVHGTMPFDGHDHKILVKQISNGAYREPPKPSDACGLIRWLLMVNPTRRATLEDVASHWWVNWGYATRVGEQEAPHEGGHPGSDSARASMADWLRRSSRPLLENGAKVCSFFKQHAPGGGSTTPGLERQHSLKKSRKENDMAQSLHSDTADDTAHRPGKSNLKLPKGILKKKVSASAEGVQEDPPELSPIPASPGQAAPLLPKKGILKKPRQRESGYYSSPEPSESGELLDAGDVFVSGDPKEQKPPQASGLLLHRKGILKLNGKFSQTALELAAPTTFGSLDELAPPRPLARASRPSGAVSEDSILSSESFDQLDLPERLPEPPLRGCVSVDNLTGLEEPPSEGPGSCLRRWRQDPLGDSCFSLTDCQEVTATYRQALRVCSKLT
# MAP3K9 (human), sequence (P80192 whole entry, looked up): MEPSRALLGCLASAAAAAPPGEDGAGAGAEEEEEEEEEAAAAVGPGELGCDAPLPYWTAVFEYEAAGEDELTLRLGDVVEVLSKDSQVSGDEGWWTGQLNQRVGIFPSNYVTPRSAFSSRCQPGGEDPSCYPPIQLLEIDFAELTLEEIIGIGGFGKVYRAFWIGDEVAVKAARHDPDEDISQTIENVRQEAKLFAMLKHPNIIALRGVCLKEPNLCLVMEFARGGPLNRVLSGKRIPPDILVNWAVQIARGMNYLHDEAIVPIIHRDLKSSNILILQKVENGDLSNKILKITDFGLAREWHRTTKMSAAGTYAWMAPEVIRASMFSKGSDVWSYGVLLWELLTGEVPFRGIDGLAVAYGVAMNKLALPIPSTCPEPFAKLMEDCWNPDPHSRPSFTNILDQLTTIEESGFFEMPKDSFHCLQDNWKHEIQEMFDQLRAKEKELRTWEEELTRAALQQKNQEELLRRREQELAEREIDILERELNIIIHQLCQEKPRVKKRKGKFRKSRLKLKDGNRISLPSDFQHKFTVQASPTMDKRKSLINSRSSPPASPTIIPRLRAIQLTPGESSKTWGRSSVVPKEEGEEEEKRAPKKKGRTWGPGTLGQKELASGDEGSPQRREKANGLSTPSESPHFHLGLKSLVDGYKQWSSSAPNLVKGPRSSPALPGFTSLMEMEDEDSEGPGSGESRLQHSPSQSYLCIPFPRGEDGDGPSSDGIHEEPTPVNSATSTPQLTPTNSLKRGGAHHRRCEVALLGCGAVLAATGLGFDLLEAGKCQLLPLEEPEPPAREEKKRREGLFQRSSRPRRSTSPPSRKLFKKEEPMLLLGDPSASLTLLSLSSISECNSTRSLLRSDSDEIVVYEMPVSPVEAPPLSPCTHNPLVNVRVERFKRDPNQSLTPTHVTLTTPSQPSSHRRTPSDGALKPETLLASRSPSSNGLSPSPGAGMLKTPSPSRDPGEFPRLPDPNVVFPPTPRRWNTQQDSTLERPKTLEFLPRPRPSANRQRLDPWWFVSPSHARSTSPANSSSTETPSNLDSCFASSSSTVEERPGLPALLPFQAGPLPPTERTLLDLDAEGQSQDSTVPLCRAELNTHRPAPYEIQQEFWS
# GRK7 (human), sequence (Q8WTQ7 whole entry, looked up): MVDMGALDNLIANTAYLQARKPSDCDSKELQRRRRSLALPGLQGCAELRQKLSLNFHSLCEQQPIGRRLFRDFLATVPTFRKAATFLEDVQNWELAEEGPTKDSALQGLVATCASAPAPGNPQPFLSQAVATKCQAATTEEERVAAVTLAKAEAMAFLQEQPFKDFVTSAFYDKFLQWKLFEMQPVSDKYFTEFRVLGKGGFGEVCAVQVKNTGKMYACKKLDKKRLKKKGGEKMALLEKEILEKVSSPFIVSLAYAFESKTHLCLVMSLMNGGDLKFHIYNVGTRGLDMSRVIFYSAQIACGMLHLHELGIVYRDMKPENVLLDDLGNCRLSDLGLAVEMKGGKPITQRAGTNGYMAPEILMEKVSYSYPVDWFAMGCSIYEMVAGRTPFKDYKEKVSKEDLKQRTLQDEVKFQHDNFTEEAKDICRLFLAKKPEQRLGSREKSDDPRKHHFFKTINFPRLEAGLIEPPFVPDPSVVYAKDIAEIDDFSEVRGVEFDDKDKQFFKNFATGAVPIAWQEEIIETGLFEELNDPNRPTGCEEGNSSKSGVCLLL
structure (smiles),measurement,setting,value
CCCC(=O)Oc1ccc2[nH]c(C(=O)c3cc4ccccc4[nH]3)cc2c1,residual activity,ABL2 (human),96.3%
same,residual activity,AXL (human),103%
same,residual activity,BMX (human),97.4%
same,residual activity,CAMKK1 (human),106%
same,residual activity,CDK2 CCNE1 (human),92.1%
same,residual activity,CDK9 CCNT1 (human),105%
same,residual activity,CHEK1 (human),89.7%
same,residual activity,CHEK2 (human),99%
same,residual activity,CLK3 (human),96.9%
same,residual activity,CSK (human),83.5%
same,residual activity,CSNK1G1 (human),76.1%
same,residual activity,DSTYK (human),94.9%
same,residual activity,DYRK2 (human),91.8%
same,residual activity,EPHA6 (human),88%
same,residual activity,EPHB2 (human),98.4%
same,residual activity,GRK7 (human),105%
same,residual activity,HIPK4 (human),86.3%
same,residual activity,ITK (human),82%
same,residual activity,[1],104%
same,residual activity,LTK (human),87.5%
same,residual activity,MAP3K2 (human),81.7%
same,residual activity,MAP3K9 (human),97.7%
same,residual activity,MAPK10 (human),100%
same,residual activity,MARK3 (human),92.1%
same,residual activity,MKNK2 (human),105%
same,residual activity,NEK1 (human),94.3%
same,residual activity,NTRK2 (human),89.8%
same,residual activity,NUAK1 (human),94%
same,residual activity,NUAK2 (human),73.4%
same,residual activity,PAK7 (human),91%
same,residual activity,PKN2 (human),100%
same,residual activity,PRKCA (human),102%
same,residual activity,PRKCD (human),88.8%
same,residual activity,PRKCZ (human),98.3%
same,residual activity,PRKD1 (human),88.7%
same,residual activity,PRKD2 (human),91.7%
same,residual activity,PTK6 (human),85.4%
same,residual activity,TAOK1 (human),82.8%
same,residual activity,TAOK2 (human),110%
same,residual activity,TTK (human),85.7%
same,residual activity,YES1 (human),84.4%
Oc1cccc(-c2nc(N3CCOCC3)c3oc4ncccc4c3n2)c1,residual activity,ABL2 (human),94.9%
same,residual activity,AXL (human),105%
same,residual activity,BMX (human),101%
same,residual activity,CAMKK1 (human),84.6%
same,residual activity,CDK2 CCNE1 (human),85.5%
same,residual activity,CDK9 CCNT1 (human),105%
same,residual activity,CHEK2 (human),90.4%
same,residual activity,CLK3 (human),93.1%
same,residual activity,CSK (human),88.3%
same,residual activity,CSNK1G1 (human),89.4%
same,residual activity,DSTYK (human),96.1%
same,residual activity,DYRK2 (human),97.6%
same,residual activity,EPHA6 (human),79%
same,residual activity,EPHB2 (human),88.6%
same,residual activity,GRK7 (human),100%
same,residual activity,HIPK4 (human),107%
same,residual activity,ITK (human),93.1%
same,residual activity,[1],104%
same,residual activity,LTK (human),97.6%
same,residual activity,MAP3K2 (human),103%
same,residual activity,MAP3K9 (human),103%
same,residual activity,MAPK10 (human),102%
same,residual activity,MARK3 (human),97.4%
same,residual activity,MKNK2 (human),92.6%
same,residual activity,NEK1 (human),77.8%
same,residual activity,NTRK2 (human),90.2%
same,residual activity,NUAK1 (human),86.6%
same,residual activity,NUAK2 (human),75.3%
same,residual activity,PAK7 (human),92.8%
same,residual activity,PKN2 (human),87.6%
same,residual activity,PRKCA (human),103%
same,residual activity,PRKCD (human),96%
same,residual activity,PRKCZ (human),99.1%
same,residual activity,PRKD1 (human),98.3%
same,residual activity,PRKD2 (human),93.8%
same,residual activity,PTK6 (human),80.8%
same,residual activity,TAOK1 (human),91.6%
same,residual activity,TAOK2 (human),92.2%
same,residual activity,TTK (human),93.3%
same,residual activity,YES1 (human),94.3%
O=C1NC(=O)C(c2cn(CCCn3ccnc3)c3ccccc23)=C1Nc1ccccc1,residual activity,ABL2 (human),91.8%
same,residual activity,AXL (human),98.8%
same,residual activity,BMX (human),90%
same,residual activity,CAMKK1 (human),96.3%
same,residual activity,CDK2 CCNE1 (human),81.8%
same,residual activity,CDK9 CCNT1 (human),51.3%
same,residual activity,CHEK1 (human),76.6%
same,residual activity,CHEK2 (human),88.3%
same,residual activity,CLK3 (human),93.9%
same,residual activity,CSK (human),110%
same,residual activity,CSNK1G1 (human),95%
same,residual activity,DSTYK (human),102%
same,residual activity,DYRK2 (human),97.3%
same,residual activity,EPHA6 (human),106%
same,residual activity,EPHB2 (human),98.4%
same,residual activity,GRK7 (human),86.3%
same,residual activity,HIPK4 (human),90.7%
same,residual activity,ITK (human),93.9%
same,residual activity,[1],82.1%
same,residual activity,LTK (human),93.4%
same,residual activity,MAP3K2 (human),83.3%
same,residual activity,MAP3K9 (human),30.6%
same,residual activity,MAPK10 (human),100%
same,residual activity,MARK3 (human),92.1%
same,residual activity,MKNK2 (human),87.2%
same,residual activity,NEK1 (human),114%
same,residual activity,NTRK2 (human),85.8%
same,residual activity,NUAK1 (human),70.6%
same,residual activity,NUAK2 (human),113%
same,residual activity,PAK7 (human),94.2%
same,residual activity,PKN2 (human),76.9%
same,residual activity,PRKCA (human),32%
same,residual activity,PRKCD (human),19.3%
same,residual activity,PRKCZ (human),99.6%
same,residual activity,PRKD1 (human),94.4%
same,residual activity,PRKD2 (human),94.3%
same,residual activity,TAOK1 (human),101%
same,residual activity,TAOK2 (human),92.3%
same,residual activity,TTK (human),121%
same,residual activity,YES1 (human),89.3%
Cc1ccc(Nc2nccc(N(C)c3ccc4c(C)n(C)nc4c3)n2)cc1S(N)(=O)=O,residual activity,ABL2 (human),38.5%
same,residual activity,AXL (human),78.1%
same,residual activity,BMX (human),93.4%
same,residual activity,CAMKK1 (human),72%
same,residual activity,CDK2 CCNE1 (human),96.4%
same,residual activity,CDK9 CCNT1 (human),91.5%
same,residual activity,CHEK1 (human),110%
same,residual activity,CHEK2 (human),95.1%
same,residual activity,CLK3 (human),107%
same,residual activity,CSK (human),93%
same,residual activity,CSNK1G1 (human),100%
same,residual activity,DSTYK (human),94.3%
same,residual activity,DYRK2 (human),98.8%
same,residual activity,EPHA6 (human),80%
same,residual activity,EPHB2 (human),91.9%
same,residual activity,GRK7 (human),96.5%
same,residual activity,HIPK4 (human),109%
same,residual activity,ITK (human),115%
same,residual activity,[1],104%
same,residual activity,LTK (human),80.2%
same,residual activity,MAP3K2 (human),110%
same,residual activity,MAP3K9 (human),10.6%
same,residual activity,MARK3 (human),96.6%
same,residual activity,MKNK2 (human),107%
same,residual activity,NEK1 (human),105%
same,residual activity,NTRK2 (human),91.5%
same,residual activity,NUAK1 (human),53.4%
same,residual activity,NUAK2 (human),93.8%
same,residual activity,PAK7 (human),95.4%
same,residual activity,PKN2 (human),106%
same,residual activity,PRKCA (human),94.4%
same,residual activity,PRKCD (human),106%
same,residual activity,PRKCZ (human),97.7%
same,residual activity,PRKD1 (human),96.9%
same,residual activity,PRKD2 (human),90.8%
same,residual activity,PTK6 (human),66.2%
same,residual activity,TAOK1 (human),28.9%
same,residual activity,TAOK2 (human),26.8%
same,residual activity,TTK (human),73.4%
same,residual activity,YES1 (human),52.6%
